Where two headings read alike, the source gives them in different places.
Key:
[1] = Singlet oxygen quenching measurements; type: physicochemical; conditions: 355 nm with C60 as external sensitizer; error is one standard deviation
RVFV = experiment: microbe, parasite or virus in culture; type: cell-based, Rift Valley fever MP-12 (vaccine strain); conditions: Rift Valley fever virus, 10 min, read-out: IC50 RVFV
[2] = Membrane partition into HIV membrane-like mixture LUV (fluorescence)
in vitro = conditions: human
H1N1 = experiment: microbe, parasite or virus in culture; type: cell-based, Influenza A A/PR/8/34 (H1N1); conditions: read-out: IC50 H1N1
HSV = experiment: microbe, parasite or virus in culture; type: cell-based, Herpes simplex virus-1; conditions: Human alphaherpesvirus 1, 10 min
RABV = experiment: microbe, parasite or virus in culture; type: cell-based; conditions: Lyssavirus rabies, 10 min, read-out: IC50 RABV
NiV = experiment: microbe, parasite or virus in culture; type: cell-based, Nipah virus Malaysia
[3] = Membrane partition into POPC LUV (fluorescence)
VSV = experiment: microbe, parasite or virus in culture; type: cell-based; conditions: Vesicular stomatitis virus, 10 min, read-out: IC50 VSV
RVFV ZH501 = type: in vivo, Balb/c mice
[4] = Singlet oxygen quantum yield measurements; type: physicochemical
NDV = experiment: microbe, parasite or virus in culture; type: cell-based, Newcastle disease virus; conditions: avian paramyxovirus 1, 10 min
HIV = experiment: microbe, parasite or virus in culture; type: cell-based; conditions: Human immunodeficiency virus 1, 10 min
[5] = Absorbance spectra / UV-visible spectra integration; type: physicochemical
[6] = Clinical observations after single dose in PK study; type: in vivo, female Balb/c mice; conditions: single dose 10 mg/kg ip
Procedure: Dose administration. […] These mice were replaced and the dose level was reduced to 5 mg/kg. […] Hypoactivity was the only clinical observation noted in some of the mice treated with the 3 test articles at 10 and 100 mg/kg po. […] These animals were replaced and administered with the lower ip dose level of 1.25 mg/kg and underwent blood collections. Mice received single ip doses of 1.25 mg/kg (JL109 and JL118) or 5 mg/kg (JL122) and po doses of 10 mg/kg (JL109, JL118, JL122), 50 mg/kg (JL109, JL118), or 100 mg/kg (JL109, JL118, JL122).

Ad5 = type: cell-based, Adenovirus serotype 5; conditions: non-enveloped virus; 10 min white light exposure of treated virus
SFV = experiment: microbe, parasite or virus in culture; type: cell-based; conditions: Semliki Forest virus, BHK, 10 min, read-out: IC50 SFV
HeV = experiment: microbe, parasite or virus in culture; type: cell-based, Hendra virus; conditions: Henipavirus hendraense, 10 min, read-out: IC50 HeV
CMV = experiment: microbe, parasite or virus in culture; type: cell-based, Cytomegalovirus (strain T3259)
Pharmacokinetics in mice = conditions: for bioavailability: female, Balb/c, mouse, in vivo
EBOV = experiment: microbe, parasite or virus in culture; type: cell-based, Ebola Zaire; conditions: Zaire ebolavirus, 10 min, read-out: IC50 EBOV
HIV-1JR-CSF = type: cell-based

With `CCN1C(=S)O/C(=C\c2ccc(-c3ccccc3OC)o2)C1=S` [JL103, (Z) 3-Ethyl-5-[5-(2-methoxyphenyl)-furan-2-ylmethylene]oxazolid-ine-2,4-dithione] the “kT × 10-7” value [1] was 0.636 ± 0.030 M-1s-1, the IC50 (RVFV) was 3 nM and the Kp at 10 min, 50 µM [2] was 310. The “IL / Iw” value ([2]; HIV-like mixture LUV, fluorescence intensity ratio from curve fitting) was 68.29, the CC50 (in vitro) was 9140 nM and the IC50 (H1N1; Influenza A virus, H1N1, 10 min) was 1.7 nM. The IC50 (H1N1) was 2 nM, the IC50 (HSV; read-out: IC50 HSV) was 2 nM and the IC50 (HSV; read-out: IC50 ± SD (nM) (N=x) HSV) was 1.9 ± 2.5 nM. The IC50 (RABV) was 260 nM, the IC50 (NiV; Henipavirus nipahense, 10 min, read-out: IC50 NiV, 10 min white light exposure of treated virus) was 3.9 nM and the IC50 (NiV; read-out: IC50 NiV, 10 min white light exposure of treated virus) was 4 nM. The Kp at 10 min, 50 µM [3] was 580, the “IL / Iw” value ([3]; POPC LUV, fluorescence intensity ratio from curve fitting) was 14.78 and the IC50 (VSV) was 11 nM. For the same compound, the “time-to-death / survival compared to untreated controls” value (RVFV ZH501; 20 pfu RVFV ZH501 IP, IP once a day for 7 days from 1 h post-challenge, JL118 1.25 mg/kg, JL122 and JL103 10 mg/kg) was “no significant effect on survival”, the Median survival (RVFV ZH501; 50 pfu RVFV ZH501 IP, 10 mg/kg IP at 1, 12, 24 and 48 h post-challenge, n = 5) was 3 days and the “QY at 355 nm, times higher than LJ001” value ([4]; 355 nm) was “about 2 times”. The “1O2 QY 355 nm” value ([4]; in CD2Cl2, excitation 355 nm, error is one standard deviation) was 0.36 ± 0.02, the “1O2 QY 532 nm” value ([4]; in CD2Cl2, excitation 532 nm, error is one standard deviation) was 0.30 ± 0.03 and the IC50 (NDV; read-out: IC50 NDV) was 4 nM. For the same compound, the IC50 (NDV; read-out: IC50 ± SD (nM) (N=x) NDV) was 5.7 ± 6.4 nM, the IC50 (HIV; read-out: IC50 HIV) was 13 nM and the IC50 (HIV; read-out: IC50 ± SD (nM) (N=x) HIV) was 12.2 ± 9.7 nM. The “Abs Max (λmax)” value ([5]; 100 µM in DMSO) was 515 nm, the “AUC (400-750 nm)” value ([5]; integrated absorption divided by concentration, normalized relative to LJ001 (LJ001 = 100)) was 153 and the “total integrated absorption (AUC), times that of LJ001” value ([5]; λ = 400 to 750 nm) was 1.53 times. For the same compound, the clinical observations [6] was “appeared normal”, the “IC50 Ad5” value (Ad5) was “inactive” and the IC50 (SFV) was 44 nM. For the same compound, the IC50 (HeV) was 0.5 nM, the IC50 (CMV; Human betaherpesvirus 5, 10 min, read-out: IC50 CMV, 10 min white light exposure of treated virus) was 5 nM and the IC50 (CMV; read-out: IC50 CMV, 10 min white light exposure of treated virus) was 4 nM. The bioavailability (Pharmacokinetics in mice; ip, 10 mg/kg) was ~50%, the bioavailability (Pharmacokinetics in mice; po, 100 mg/kg) was 3.1 to 105% and the “improvements in relevant pharmacokinetic (PK) parameters compared to LJ001” value (Pharmacokinetics in mice; half-life, AUC, bioavailability, clearance) was > 10 fold. The IC50 (EBOV) was 185 nM and the “reduction of antiviral activity at physiological Hct” value (HIV-1JR-CSF) was > 50%.
